In the test the target is T1, full-length human Mineralocorticoid Receptor (MR) (Homo sapiens, UniProt P08235).
T1 construct: host or cells: PathHunter CHO-K1 MR cells
T1 sequence (P08235 1-984): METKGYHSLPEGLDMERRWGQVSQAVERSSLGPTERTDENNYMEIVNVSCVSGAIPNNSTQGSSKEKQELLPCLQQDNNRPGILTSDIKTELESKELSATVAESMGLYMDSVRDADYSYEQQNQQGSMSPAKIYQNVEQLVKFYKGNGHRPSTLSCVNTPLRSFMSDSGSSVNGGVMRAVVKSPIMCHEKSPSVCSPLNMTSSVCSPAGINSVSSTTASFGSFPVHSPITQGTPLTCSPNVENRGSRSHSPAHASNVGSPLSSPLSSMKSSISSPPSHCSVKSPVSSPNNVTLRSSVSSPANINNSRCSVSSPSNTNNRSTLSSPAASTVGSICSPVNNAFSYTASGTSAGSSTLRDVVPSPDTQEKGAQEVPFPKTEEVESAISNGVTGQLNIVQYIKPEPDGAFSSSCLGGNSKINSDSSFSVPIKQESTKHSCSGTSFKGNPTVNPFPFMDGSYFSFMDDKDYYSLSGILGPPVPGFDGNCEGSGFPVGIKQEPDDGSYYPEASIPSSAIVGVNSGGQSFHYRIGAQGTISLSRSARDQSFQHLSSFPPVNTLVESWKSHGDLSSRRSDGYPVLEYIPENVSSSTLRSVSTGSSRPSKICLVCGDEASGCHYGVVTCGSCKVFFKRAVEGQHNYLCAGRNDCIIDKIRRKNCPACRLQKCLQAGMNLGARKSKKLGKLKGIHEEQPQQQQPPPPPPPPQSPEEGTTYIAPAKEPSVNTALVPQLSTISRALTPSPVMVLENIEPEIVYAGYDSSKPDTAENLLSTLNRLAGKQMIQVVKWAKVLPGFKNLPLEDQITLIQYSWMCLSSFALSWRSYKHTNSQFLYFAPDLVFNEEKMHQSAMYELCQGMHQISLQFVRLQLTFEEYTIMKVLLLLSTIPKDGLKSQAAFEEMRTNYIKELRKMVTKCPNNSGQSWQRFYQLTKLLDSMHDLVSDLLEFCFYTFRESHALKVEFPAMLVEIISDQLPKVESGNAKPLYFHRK
Briefly: human MR NH Pro assay (PathHunter Protein:Protein interaction assay), MR antagonism. Particulars: IP = inflection point of the dose-response curve; CHO-K1 cells overexpressing human MR, aldosterone about 0.3 nM to about 1 nM, 6 hours at 37° C. In kind it is cell-based. From the text: The activity of the compounds of the present invention regarding mineralocorticoid receptor antagonism can be evaluated using the following assay.
Assessment of MR Potency in HMR NH Pro Assay
The human MR NH Pro assay is a commercially available PathHunter™ Protein:Protein interaction assay (DiscoveRx; http://www.discoverx.com/nhrs/prod-nhrs.php) that measures the ability of compounds to antagonize full-length human Mineralocorticoid Receptor (MR) binding to a coactivator peptide.
Stock solution was prepared at 10 μM in DMSO and stored at −20° C. for assay, dilute in assay media to 1.8 or 6 nM (6× of final concentration=about 0.3 nM to about 1.0 nM)
5. Cell line: PathHunter CHO-K1 MR cells Cat #93-0456C2, Lot No: 09B0913, from operation liquid nitrogen stock.
6. Control Antagonist: Spironolactone: Sigma #S-3378 and Eplerenone Sigma #107724-20-9 (10 mM stock concentration also prepared in DMSO and stored at −20° C.).
1. Cells are grown in F12+FBS+Hygromycin+pen/strep+Genetin
2. Cells are collected with 0.05% trypsin and the cell suspension is spun and resuspended in a volume of F12+1.5% CD-FBS and counted.
3. The cells concentration was adjusted to 4×10^5 cells/mL.
4. Cells were (25 μL/well) added to the wells of a 384 well plate.
5. The plate was then incubated at 37° C. over night in a humidified incubator with 5% CO2.
6. Test compounds were titrated starting at 4.4 mM, 10-point titration in 1:3 dilution.
Protocol for 384 well plate format: 6 hr treatment:
1. 10K exponentially growing cells/well (25 μL) were resuspended in assay media and plated into each well using the Multidrop (Thermo Electron) (use white wall, clear bottom assay plates (Costar #3570) and incubated overnight at 37° C., 5% CO2.
2. 0.25 μL 120× test compound (final DMSO concentration should be <1%) was added to each well n=2, 10 point titrations starting at 36.7 μM final concentration.
4. 5 μL of assay media was added to all wells in column 23 and 24.
5. Cells were then incubated for 6 hrs at 37° C., 5% CO2.
6. 15 μL 3× DiscoveRx detection reagent was then added to each well.
7. Plates were incubated for 1 hour at room temperature in the dark.
8. Plates were read on Envision (PerkinElmer) luminesence plate reader and analyzed using ADA.
On to `CCC(C(N)=O)(c1ccc(S(F)(F)(F)(F)F)cc1)n1ncc2c(NS(C)(=O)=O)cccc21` (racemic) [Compound 27, 2-{4-[(methylsulfonyl)amino]-1H-indazol-1-yl}-2-[4-(pentafluoro-λ^6-sulfanyl)phenyl]butanamide], for which the IC50 stood at 3.61 µM.

Compound `CCC(c1ccc(Br)cc1)(C(C)O)n1ncc2c(NS(C)(=O)=O)cccc21` (single isomer, unassigned) [Compound 1, N-(1-(3-(4-bromophenyl)-2-hydroxypentan-3-yl)-1H-indazol-4-yl) methanesulfonamide] had an IC50 of 0.01 µM. Compared with the last compound, the IC50 is about 360-fold lower.

`CCC(c1ccc(Br)cc1)(C(C)O)n1ncc2c(NS(C)(=O)=O)cccc21` (single isomer, unassigned) [Compound 3, N-(1-(3-(4-bromophenyl)-2-hydroxypentan-3-yl)-1H-indazol-4-yl) methanesulfonamide] yielded an IC50 of 0.733 µM. Compared with the last compound, the IC50 is about 73-fold higher.

In turn, `CCC(c1ccc(Br)cc1)(C(C)O)n1ncc2c(NS(C)(=O)=O)cccc21` (single isomer, unassigned) [Compound 4, N-(1-(3-(4-bromophenyl)-2-hydroxypentan-3-yl)-1H-indazol-4-yl) methanesulfonamide] gave an IC50 of 0.728 µM.

`CCC(O)C(CC)(c1ccc(Br)cc1)n1ncc2c(NS(C)(=O)=O)cccc21` (single isomer, unassigned) [Compound 5, N-(1-(3-(4-bromophenyl)-4-hydroxyhexan-3-yl)-1H-indazol-4-yl)methanesulfonamide] yielded an IC50 of 0.008 µM.

As for `CCC(O)C(CC)(c1ccc(Br)cc1)n1ncc2c(NS(C)(=O)=O)cccc21` (single isomer, unassigned) [Compound 6, N-(1-(3-(4-bromophenyl)-4-hydroxyhexan-3-yl)-1H-indazol-4-yl)methanesulfonamide], half-maximal inhibition (IC50) required 0.003 µM.

The compound `CCC(O)C(CC)(c1ccc(Br)cc1)n1ncc2c(NS(C)(=O)=O)cccc21` (single isomer, unassigned) [Compound 7, N-(1-(3-(4-bromophenyl)-4-hydroxyhexan-3-yl)-1H-indazol-4-yl)methanesulfonamide] yielded an IC50 of 1.99 µM. Against the preceding compound, the IC50 is about 660-fold higher.

Regarding `CCC(O)C(CC)(c1ccc(Br)cc1)n1ncc2c(NS(C)(=O)=O)cccc21` (single isomer, unassigned) [Compound 8, N-(1-(3-(4-bromophenyl)-4-hydroxyhexan-3-yl)-1H-indazol-4-yl)methanesulfonamide], half-maximal inhibition (IC50) required 1.19 µM.

`CCC(O)C(CC)(c1ccc(C(F)(F)F)cc1)n1ncc2c(NS(C)(=O)=O)cccc21` (single isomer, unassigned) [Compound 10, N-(1-(4-hydroxy-3-(4-(trifluoromethyl)phenyl)hexan-3-yl)-1H-indazol-4-yl)methanesulfonamide]: the IC50 came out at 0.005 µM. This IC50 lies about 240-fold lower than the previous one.

With `CCC(CO)(c1ccc(C(F)(F)F)cc1)n1ncc2c(NS(C)(=O)=O)cccc21` (single isomer, unassigned) [Compound 11, N-(1-(1-hydroxy-2-(4-(trifluoromethyl)phenyl)butan-2-yl)-1H-indazol-4-yl)methanesulfonamide], the IC50 amounted to 0.06 µM.

As for `CCC(C(N)=O)(c1ccc(C(F)(F)F)cc1)n1ncc2c(NS(C)(=O)=O)cccc21` (single isomer, unassigned) [Compound 12, 2-(4-(methylsulfonamido)-1H-indazol-1-yl)-2-(4-(trifluoromethyl)phenyl) butanamide], the IC50 is 0.139 µM.

Compound `CCC(c1ccc(C#N)cc1)(C(C)O)n1ncc2c(NS(C)(=O)=O)cccc21` (single isomer, unassigned) [Compound 13, N-(1-(-3-(4-cyanophenyl)-2-hydroxypentan-3-yl)-1H-indazol-4-yl)methanesulfonamide] returned an IC50 of 0.225 µM.

`CCC(O)C(CC)(c1ccc(C#N)cc1)n1ncc2c(NS(C)(=O)=O)cccc21` (single isomer, unassigned) [Compound 15, N-(1-(3-(4-cyanophenyl)-4-hydroxyhexan-3-yl)-1H-indazol-4-yl)methanesulfonamide] gave an IC50 of 0.056 µM.

`CCC(O)C(CC)(c1ccc(C#N)cc1)n1ncc2c(NS(C)(=O)=O)cccc21` (single isomer, unassigned) [Compound 16, N-(1-(3-(4-cyanophenyl)-4-hydroxyhexan-3-yl)-1H-indazol-4-yl)methanesulfonamide] registered an IC50 of 0.048 µM.

For `CCC(O)C(CC)(c1ccc(C(F)(F)F)cc1)n1ncc2c(NS(C)(=O)=O)cc(F)cc21` (single isomer, unassigned) [Compound 17, N-(6-fluoro-1-(4-hydroxy-3-(4-(trifluoromethyl)phenyl)hexan-3-yl)-1H-indazol-4-yl)methanesulfonamide], the IC50 is 0.021 µM.

In turn, `CCC(O)C(CC)(c1ccc(C(F)(F)F)cc1)n1ncc2c(NS(C)(=O)=O)cc(F)cc21` (single isomer, unassigned) [Compound 18, N-(6-fluoro-1-(4-hydroxy-3-(4-(trifluoromethyl)phenyl)hexan-3-yl)-1H-indazol-4-yl)methanesulfonamide] returned an IC50 of 0.009 µM. This IC50 lies about 2.3-fold lower than the previous one.

The compound `CCC(O)C(CC)(c1ccc(C#N)cc1)n1ncc2c(NS(C)(=O)=O)cc(F)cc21` (single isomer, unassigned) [Compound 19] displayed an IC50 of 0.136 µM.

`CCC(O)C(CC)(c1ccc(C#N)cc1)n1ncc2c(NS(C)(=O)=O)cc(F)cc21` (single isomer, unassigned) [Compound 20, N-(1-(3-(4-cyanophenyl)-4-hydroxyhexan-3-yl)-6-fluoro-1H-indazol-4-yl)methanesulfonamide]: the IC50 worked out at 0.138 µM.

The compound `CCC(c1ccc(S(F)(F)(F)(F)F)cc1)(C(C)O)n1ncc2c(NS(C)(=O)=O)cccc21` (single isomer, unassigned) [Compound 21, N-(1-{2-hydroxy-3-[4-(pentafluoro-λ^6-sulfanyl)phenyl]pentan-3-yl}-1H-indazol-4-yl)methanesulfonamide] returned an IC50 of 0.333 µM.

For the compound `CCC(c1ccc(S(F)(F)(F)(F)F)cc1)(C(C)O)n1ncc2c(NS(C)(=O)=O)cccc21` (single isomer, unassigned) [Compound 22, N-(1-{2-hydroxy-3-[4-(pentafluoro-λ^6-sulfanyl)phenyl]pentan-3-yl}-1H-indazol-4-yl)methanesulfonamide], the IC50 worked out at 3.81 µM. Against the preceding compound, the IC50 is about 11-fold higher.

In turn, `CCC(c1ccc(S(F)(F)(F)(F)F)cc1)(C(C)O)n1ncc2c(NS(C)(=O)=O)cccc21` (single isomer, unassigned) [Compound 23, N-(1-{2-hydroxy-3-[4-(pentafluoro-λ^6-sulfanyl)phenyl]pentan-3-yl}-1H-indazol-4-yl)methanesulfonamide] returned an IC50 of 4.74 µM.

Compound `CCC(c1ccc(S(F)(F)(F)(F)F)cc1)(C(C)O)n1ncc2c(NS(C)(=O)=O)cccc21` (single isomer, unassigned) [Compound 24, N-(1-{2-hydroxy-3-[4-(pentafluoro-λ^6-sulfanyl)phenyl]pentan-3-yl}-1H-indazol-4-yl)methanesulfonamide] displayed an IC50 of 0.152 µM. Against the preceding compound, the IC50 is about 31-fold lower.

A word on the IC50: it is the concentration at which inhibition is half-maximal. High values mean weaker potency in that assay, low ones greater potency in that assay.

Values taken from patent publication US9511052B2, “Mineralocorticoid receptor antagonists” (Merck Sharp & Dohme Corp., priority 2012, dated 2016).
